{"source": "ChEMBL document CHEMBL6120992", "about": "“Breviane Spiroditerpenoids with Anti-inflammatory and Antiviral Activities from Deep-Sea-Derived Fungus Penicillium sp. F59” (J Nat Prod, 2025)"}
{"test_system": "RAW264.7", "test": "Antiinflammatory activity in LPS-induced mouse RAW264.7 cells assessed as inhibition of nitric oxide secretion at 20 microM incubated for 24 hrs by Griess reagent based assay relative to control", "type": "functional", "settings": "not given", "units": {"inhibition at 20 µM": "%"}}
{"smiles": "CC1=C[C@H](O)[C@@H]2[C@@]3(C)[C@H](O)C(=O)[C@H](O)C(C)(C)[C@@H]3CC[C@@]2(C)[C@]12Cc1c(c(C)c(C)oc1=O)O2", "inhibition at 20 µM": 35}
{"smiles": "CC(C)(C)c1ccc(S(=O)(=O)/C=C/C#N)cc1", "note": "[BAY-11-7085]", "inhibition at 20 µM": 77}
{"smiles": "CC1=CC(=O)C=C[C@]2(C)[C@H]3[C@@H]4C=C(C)[C@@]56Oc7c(C)c(C)oc(=O)c7[C@@H]5O[C@@H](O4)[C@@]36CC[C@@H]12", "inhibition at 20 µM": 98}
{"smiles": "CC1=C[C@H](O)[C@@H]2[C@@]3(C)C[C@@H](O)C(=O)C(C)(C)[C@@H]3CC[C@@]2(C)[C@]12Cc1c(c(C)c(C)oc1=O)O2", "inhibition at 20 µM": 38}
{"smiles": "CC1=CC(=O)C[C@@H]2O[C@@H]3C=C(C)[C@]4(Oc5c(C)c(C)oc(=O)c5[C@@H]4O)[C@]4(C)CC[C@@H]1[C@@]2(C)[C@@H]34", "inhibition at 20 µM": 52}
{"smiles": "CC1=CC[C@@H]2[C@@]3(C)C=CC(=O)[C@@](C)(CO)[C@@H]3CC[C@@]2(C)[C@]12Cc1c(c(C)c(C)oc1=O)O2", "inhibition at 20 µM": 49}
{"smiles": "CC1=CC(=O)C[C@@H]2O[C@@H]3C=C(C)[C@@]4(Cc5c(c(C)c(C)oc5=O)O4)[C@]4(C)CC[C@@H]1[C@@]2(C)[C@@H]34", "inhibition at 20 µM": 25}
{"smiles": "CC(=O)O[C@@H]1O[C@@H]2C/C(=C(/C)C(C)=O)O[C@]23C(C)=C[C@H]2O[C@H]4CC(=O)C=C(C)[C@@H]5CC[C@@]13[C@H]2[C@@]45C", "inhibition at 20 µM": 34}
{"smiles": "CC1=CC(=O)[C@@H]2[C@@]3(C)[C@H](O)CC(=O)C(C)(C)[C@@H]3CC[C@@]2(C)[C@]12Cc1c(c(C)c(C)oc1=O)O2", "inhibition at 20 µM": 45}
{"smiles": "CC1=CC(=O)[C@@H]2[C@@]3(C)C=CC(=O)C(C)(C)[C@@H]3CC[C@@]2(C)[C@]12Cc1c(c(C)c(C)oc1=O)O2", "inhibition at 20 µM": 87}
{"test_system": "RAW264.7", "test": "Antiinflammatory activity in LPS-induced mouse RAW264.7 cells assessed as inhibition of nitric oxide secretion incubated for 24 hrs by Griess reagent based assay", "type": "functional, cell-based", "settings": "RAW264.7, 24 h", "units": {"IC50": "µM"}}
{"smiles": "CC(C)(C)c1ccc(S(=O)(=O)/C=C/C#N)cc1", "note": "[BAY-11-7085]", "IC50": 13.3}
{"smiles": "CC1=CC(=O)C=C[C@]2(C)[C@H]3[C@@H]4C=C(C)[C@@]56Oc7c(C)c(C)oc(=O)c7[C@@H]5O[C@@H](O4)[C@@]36CC[C@@H]12", "IC50": 1.4}
{"smiles": "CC1=CC(=O)[C@@H]2[C@@]3(C)C=CC(=O)C(C)(C)[C@@H]3CC[C@@]2(C)[C@]12Cc1c(c(C)c(C)oc1=O)O2", "IC50": 5.3}
{"test_system": "RAW264.7", "test": "Cytotoxicity against mouse RAW264.7 cells assessed as cell viability at 20 microM incubated for 24 hrs by CCK-8 method relative to control", "type": "functional", "settings": "read-out: Activity", "units": {"viability at 20 µM": "%"}}
{"smiles": "CC1=C[C@H](O)[C@@H]2[C@@]3(C)[C@H](O)C(=O)[C@H](O)C(C)(C)[C@@H]3CC[C@@]2(C)[C@]12Cc1c(c(C)c(C)oc1=O)O2", "viability at 20 µM": 100}
{"smiles": "CC(C)(C)c1ccc(S(=O)(=O)/C=C/C#N)cc1", "note": "[BAY-11-7085]", "viability at 20 µM": 100}
{"smiles": "CC1=CC(=O)C=C[C@]2(C)[C@H]3[C@@H]4C=C(C)[C@@]56Oc7c(C)c(C)oc(=O)c7[C@@H]5O[C@@H](O4)[C@@]36CC[C@@H]12", "viability at 20 µM": 93}
{"smiles": "CC1=C[C@H](O)[C@@H]2[C@@]3(C)C[C@@H](O)C(=O)C(C)(C)[C@@H]3CC[C@@]2(C)[C@]12Cc1c(c(C)c(C)oc1=O)O2", "viability at 20 µM": 100}
{"smiles": "CC1=CC(=O)C[C@@H]2O[C@@H]3C=C(C)[C@]4(Oc5c(C)c(C)oc(=O)c5[C@@H]4O)[C@]4(C)CC[C@@H]1[C@@]2(C)[C@@H]34", "viability at 20 µM": 100}
{"smiles": "CC1=CC[C@@H]2[C@@]3(C)C=CC(=O)[C@@](C)(CO)[C@@H]3CC[C@@]2(C)[C@]12Cc1c(c(C)c(C)oc1=O)O2", "viability at 20 µM": 87}
{"smiles": "CC1=CC(=O)C[C@@H]2O[C@@H]3C=C(C)[C@@]4(Cc5c(c(C)c(C)oc5=O)O4)[C@]4(C)CC[C@@H]1[C@@]2(C)[C@@H]34", "viability at 20 µM": 100}
{"smiles": "CC(=O)O[C@@H]1O[C@@H]2C/C(=C(/C)C(C)=O)O[C@]23C(C)=C[C@H]2O[C@H]4CC(=O)C=C(C)[C@@H]5CC[C@@]13[C@H]2[C@@]45C", "viability at 20 µM": 100}
{"smiles": "CC1=CC(=O)[C@@H]2[C@@]3(C)[C@H](O)CC(=O)C(C)(C)[C@@H]3CC[C@@]2(C)[C@]12Cc1c(c(C)c(C)oc1=O)O2", "viability at 20 µM": 99}
{"smiles": "CC1=CC(=O)[C@@H]2[C@@]3(C)C=CC(=O)C(C)(C)[C@@H]3CC[C@@]2(C)[C@]12Cc1c(c(C)c(C)oc1=O)O2", "viability at 20 µM": 100}
{"test_system": "SARS-CoV-2", "test": "Antiviral activity against SARS-CoV-2 Omicron BA.2 pseudovirus infected in human 293T/ACE2 cells assessed as virus inhibition incubated for 24 hrs by firefly luciferase assay", "type": "functional, organism-based", "settings": "Severe acute respiratory syndrome coronavirus 2, Omicron BA.2, 293T/ACE2, 24 h", "units": {"IC50": "µM"}}
{"smiles": "CC(C)(C)c1ccc(S(=O)(=O)/C=C/C#N)cc1", "note": "[BAY-11-7085]", "IC50": 0.74}
{"smiles": "CC1=CC(=O)C=C[C@]2(C)[C@H]3[C@@H]4C=C(C)[C@@]56Oc7c(C)c(C)oc(=O)c7[C@@H]5O[C@@H](O4)[C@@]36CC[C@@H]12", "IC50": 8.5}
{"test_system": "SARS-CoV-2", "test": "Antiviral activity against SARS-CoV-2 Omicron BA.2 pseudovirus infected in human 293T/ACE2 cells assessed as virus inhibition at 50 microM incubated for 24 hrs by firefly luciferase assay relative to control", "type": "functional", "settings": "Severe acute respiratory syndrome coronavirus 2, Omicron BA.2, 293T/ACE2", "units": {"inhibition at 50 µM": "%"}}
{"smiles": "CC1=C[C@H](O)[C@@H]2[C@@]3(C)[C@H](O)C(=O)[C@H](O)C(C)(C)[C@@H]3CC[C@@]2(C)[C@]12Cc1c(c(C)c(C)oc1=O)O2", "inhibition at 50 µM": 11}
{"smiles": "CC(C)(C)c1ccc(S(=O)(=O)/C=C/C#N)cc1", "note": "[BAY-11-7085]", "inhibition at 50 µM": 99}
{"smiles": "CC1=CC(=O)C=C[C@]2(C)[C@H]3[C@@H]4C=C(C)[C@@]56Oc7c(C)c(C)oc(=O)c7[C@@H]5O[C@@H](O4)[C@@]36CC[C@@H]12", "inhibition at 50 µM": 95}
{"smiles": "CC1=C[C@H](O)[C@@H]2[C@@]3(C)C[C@@H](O)C(=O)C(C)(C)[C@@H]3CC[C@@]2(C)[C@]12Cc1c(c(C)c(C)oc1=O)O2", "inhibition at 50 µM": 0}
{"smiles": "CC1=CC(=O)C[C@@H]2O[C@@H]3C=C(C)[C@]4(Oc5c(C)c(C)oc(=O)c5[C@@H]4O)[C@]4(C)CC[C@@H]1[C@@]2(C)[C@@H]34", "inhibition at 50 µM": 43}
{"smiles": "CC1=CC[C@@H]2[C@@]3(C)C=CC(=O)[C@@](C)(CO)[C@@H]3CC[C@@]2(C)[C@]12Cc1c(c(C)c(C)oc1=O)O2", "inhibition at 50 µM": 14}
{"smiles": "CC1=CC(=O)C[C@@H]2O[C@@H]3C=C(C)[C@@]4(Cc5c(c(C)c(C)oc5=O)O4)[C@]4(C)CC[C@@H]1[C@@]2(C)[C@@H]34", "inhibition at 50 µM": 0}
{"smiles": "CC(=O)O[C@@H]1O[C@@H]2C/C(=C(/C)C(C)=O)O[C@]23C(C)=C[C@H]2O[C@H]4CC(=O)C=C(C)[C@@H]5CC[C@@]13[C@H]2[C@@]45C", "inhibition at 50 µM": 57}
{"smiles": "CC1=CC(=O)[C@@H]2[C@@]3(C)[C@H](O)CC(=O)C(C)(C)[C@@H]3CC[C@@]2(C)[C@]12Cc1c(c(C)c(C)oc1=O)O2", "inhibition at 50 µM": 28}
{"smiles": "CC1=CC(=O)[C@@H]2[C@@]3(C)C=CC(=O)C(C)(C)[C@@H]3CC[C@@]2(C)[C@]12Cc1c(c(C)c(C)oc1=O)O2", "inhibition at 50 µM": 23}
{"test_system": "not listed separately", "test": "Cytotoxicity against human 293T/ACE2 cells assessed as cell viability at 100 microM incubated for 24 hrs by CellTiter assay relative to control", "type": "functional", "settings": "read-out: Activity", "units": {"viability at 100 µM": "%"}}
{"smiles": "CC1=C[C@H](O)[C@@H]2[C@@]3(C)[C@H](O)C(=O)[C@H](O)C(C)(C)[C@@H]3CC[C@@]2(C)[C@]12Cc1c(c(C)c(C)oc1=O)O2", "viability at 100 µM": 93}
{"smiles": "CC(C)(C)c1ccc(S(=O)(=O)/C=C/C#N)cc1", "note": "[BAY-11-7085]", "viability at 100 µM": 99}
{"smiles": "CC1=CC(=O)C=C[C@]2(C)[C@H]3[C@@H]4C=C(C)[C@@]56Oc7c(C)c(C)oc(=O)c7[C@@H]5O[C@@H](O4)[C@@]36CC[C@@H]12", "viability at 100 µM": 94}
{"smiles": "CC1=C[C@H](O)[C@@H]2[C@@]3(C)C[C@@H](O)C(=O)C(C)(C)[C@@H]3CC[C@@]2(C)[C@]12Cc1c(c(C)c(C)oc1=O)O2", "viability at 100 µM": 93}
{"smiles": "CC1=CC(=O)C[C@@H]2O[C@@H]3C=C(C)[C@]4(Oc5c(C)c(C)oc(=O)c5[C@@H]4O)[C@]4(C)CC[C@@H]1[C@@]2(C)[C@@H]34", "viability at 100 µM": 92}
{"smiles": "CC1=CC[C@@H]2[C@@]3(C)C=CC(=O)[C@@](C)(CO)[C@@H]3CC[C@@]2(C)[C@]12Cc1c(c(C)c(C)oc1=O)O2", "viability at 100 µM": 97}
{"smiles": "CC1=CC(=O)C[C@@H]2O[C@@H]3C=C(C)[C@@]4(Cc5c(c(C)c(C)oc5=O)O4)[C@]4(C)CC[C@@H]1[C@@]2(C)[C@@H]34", "viability at 100 µM": 95}
{"smiles": "CC(=O)O[C@@H]1O[C@@H]2C/C(=C(/C)C(C)=O)O[C@]23C(C)=C[C@H]2O[C@H]4CC(=O)C=C(C)[C@@H]5CC[C@@]13[C@H]2[C@@]45C", "viability at 100 µM": 92}
{"smiles": "CC1=CC(=O)[C@@H]2[C@@]3(C)[C@H](O)CC(=O)C(C)(C)[C@@H]3CC[C@@]2(C)[C@]12Cc1c(c(C)c(C)oc1=O)O2", "viability at 100 µM": 91}
{"smiles": "CC1=CC(=O)[C@@H]2[C@@]3(C)C=CC(=O)C(C)(C)[C@@H]3CC[C@@]2(C)[C@]12Cc1c(c(C)c(C)oc1=O)O2", "viability at 100 µM": 95}
